Measured values published in PMC9851200, “Multiparameter phenotypic screening for endogenous TFEB and TFE3 translocation identifies novel chemical series modulating lysosome function” (Autophagy, 2022).

Tests used:
Assay type in all cases: binding
[1] = target: kinases (KINOMEscan panel) (Homo sapiens, UniProt P10721, L576P); conditions: KIT(L576P); NEW KINOMEscan
[2] = target: T1, kinases (KINOMEscan panel) (Homo sapiens, UniProt Q6ZWH5); conditions: NEW KINOMEscan
T1 sequence (Q6ZWH5 1-1172): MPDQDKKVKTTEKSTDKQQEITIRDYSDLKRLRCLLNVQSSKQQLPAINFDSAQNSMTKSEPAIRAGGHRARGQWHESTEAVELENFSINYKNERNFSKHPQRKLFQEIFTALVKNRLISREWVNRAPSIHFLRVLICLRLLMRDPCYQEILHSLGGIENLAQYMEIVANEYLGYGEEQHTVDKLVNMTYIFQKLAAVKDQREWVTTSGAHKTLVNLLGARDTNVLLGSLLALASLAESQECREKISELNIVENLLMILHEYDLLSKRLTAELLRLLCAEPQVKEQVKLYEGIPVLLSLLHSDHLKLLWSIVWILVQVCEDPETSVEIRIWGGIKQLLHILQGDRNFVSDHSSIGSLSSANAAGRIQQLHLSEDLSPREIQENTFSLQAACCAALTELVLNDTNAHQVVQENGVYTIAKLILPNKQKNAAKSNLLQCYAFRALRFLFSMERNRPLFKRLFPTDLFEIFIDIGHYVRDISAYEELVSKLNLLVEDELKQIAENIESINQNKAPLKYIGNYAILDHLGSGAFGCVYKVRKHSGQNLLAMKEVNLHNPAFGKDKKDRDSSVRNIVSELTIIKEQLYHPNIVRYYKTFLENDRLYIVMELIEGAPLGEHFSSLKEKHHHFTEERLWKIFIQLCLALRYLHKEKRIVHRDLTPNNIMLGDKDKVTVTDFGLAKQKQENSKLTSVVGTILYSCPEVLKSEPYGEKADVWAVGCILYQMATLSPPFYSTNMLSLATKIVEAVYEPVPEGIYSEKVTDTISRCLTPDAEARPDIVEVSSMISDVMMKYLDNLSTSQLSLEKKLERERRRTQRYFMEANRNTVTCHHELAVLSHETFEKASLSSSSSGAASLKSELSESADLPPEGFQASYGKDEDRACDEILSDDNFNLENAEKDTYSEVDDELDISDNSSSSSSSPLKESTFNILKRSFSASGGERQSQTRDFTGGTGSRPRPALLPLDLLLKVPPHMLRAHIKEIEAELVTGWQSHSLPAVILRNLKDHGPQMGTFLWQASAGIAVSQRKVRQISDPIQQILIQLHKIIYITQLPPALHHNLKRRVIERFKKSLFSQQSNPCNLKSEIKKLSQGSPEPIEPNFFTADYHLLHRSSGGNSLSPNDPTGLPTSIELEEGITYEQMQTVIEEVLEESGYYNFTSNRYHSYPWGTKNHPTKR

[3] = target: kinases (KINOMEscan panel) (Homo sapiens, UniProt Q00537); conditions: kinase CDK17; NEW KINOMEscan
[4] = target: kinases (KINOMEscan panel) (Homo sapiens, UniProt Q8IVW4); conditions: kinase CDKL3; NEW KINOMEscan
Chain of kinases (KINOMEscan panel) (Homo sapiens, UniProt Q8IVW4) (Q8IVW4 whole entry): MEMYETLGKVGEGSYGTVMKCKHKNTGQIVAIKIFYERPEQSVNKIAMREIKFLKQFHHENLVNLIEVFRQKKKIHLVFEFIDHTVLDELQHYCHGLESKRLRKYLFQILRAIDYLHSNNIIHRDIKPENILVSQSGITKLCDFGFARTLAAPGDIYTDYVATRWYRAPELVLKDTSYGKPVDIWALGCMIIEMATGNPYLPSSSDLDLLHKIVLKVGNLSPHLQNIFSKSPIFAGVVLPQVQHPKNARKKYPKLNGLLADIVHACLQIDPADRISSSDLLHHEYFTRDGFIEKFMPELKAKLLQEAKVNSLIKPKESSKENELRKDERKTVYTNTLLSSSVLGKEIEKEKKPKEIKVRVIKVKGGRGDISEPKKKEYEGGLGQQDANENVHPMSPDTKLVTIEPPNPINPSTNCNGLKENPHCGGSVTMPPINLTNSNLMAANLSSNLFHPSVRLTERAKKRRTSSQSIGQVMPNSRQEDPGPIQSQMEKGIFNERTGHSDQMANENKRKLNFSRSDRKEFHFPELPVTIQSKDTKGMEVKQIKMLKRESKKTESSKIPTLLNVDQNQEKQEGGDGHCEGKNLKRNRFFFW

[5] = target: kinases (KINOMEscan panel) (Homo sapiens, UniProt O43683); conditions: kinase BUB1; NEW KINOMEscan
Chain of kinases (KINOMEscan panel) (Homo sapiens, UniProt O43683) (O43683 whole entry): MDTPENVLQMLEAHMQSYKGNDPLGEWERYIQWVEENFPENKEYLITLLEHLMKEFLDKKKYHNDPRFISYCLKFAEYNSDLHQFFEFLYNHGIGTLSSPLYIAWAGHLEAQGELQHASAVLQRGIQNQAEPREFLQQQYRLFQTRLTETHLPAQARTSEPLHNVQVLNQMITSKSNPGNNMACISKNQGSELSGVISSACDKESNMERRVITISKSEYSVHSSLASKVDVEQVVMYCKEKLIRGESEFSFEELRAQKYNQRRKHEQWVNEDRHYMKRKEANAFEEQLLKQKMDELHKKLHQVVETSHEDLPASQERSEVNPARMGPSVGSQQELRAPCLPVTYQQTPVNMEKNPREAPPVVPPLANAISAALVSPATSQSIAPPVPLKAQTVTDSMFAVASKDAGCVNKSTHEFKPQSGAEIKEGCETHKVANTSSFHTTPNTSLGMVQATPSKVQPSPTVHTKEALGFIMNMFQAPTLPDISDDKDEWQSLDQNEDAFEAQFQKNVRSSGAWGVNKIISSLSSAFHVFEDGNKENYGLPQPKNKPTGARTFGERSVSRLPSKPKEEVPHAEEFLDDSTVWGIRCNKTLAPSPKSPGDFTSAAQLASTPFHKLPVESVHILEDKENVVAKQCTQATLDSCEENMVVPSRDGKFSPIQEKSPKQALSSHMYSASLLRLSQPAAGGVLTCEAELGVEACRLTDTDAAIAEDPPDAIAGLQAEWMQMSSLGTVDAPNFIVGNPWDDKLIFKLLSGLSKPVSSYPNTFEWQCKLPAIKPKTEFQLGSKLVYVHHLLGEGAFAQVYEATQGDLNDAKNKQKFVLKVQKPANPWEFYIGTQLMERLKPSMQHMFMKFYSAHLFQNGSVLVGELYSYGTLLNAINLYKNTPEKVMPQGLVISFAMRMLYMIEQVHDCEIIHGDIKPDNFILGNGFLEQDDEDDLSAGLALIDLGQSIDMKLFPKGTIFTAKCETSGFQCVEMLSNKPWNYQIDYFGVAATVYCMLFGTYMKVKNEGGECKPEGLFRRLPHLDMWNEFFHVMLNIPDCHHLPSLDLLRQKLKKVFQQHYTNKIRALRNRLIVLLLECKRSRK

[6] = target: kinases (KINOMEscan panel) (Homo sapiens, UniProt P35590); conditions: TIE1; NEW KINOMEscan
Chain of kinases (KINOMEscan panel) (Homo sapiens, UniProt P35590) (P35590 22-1138): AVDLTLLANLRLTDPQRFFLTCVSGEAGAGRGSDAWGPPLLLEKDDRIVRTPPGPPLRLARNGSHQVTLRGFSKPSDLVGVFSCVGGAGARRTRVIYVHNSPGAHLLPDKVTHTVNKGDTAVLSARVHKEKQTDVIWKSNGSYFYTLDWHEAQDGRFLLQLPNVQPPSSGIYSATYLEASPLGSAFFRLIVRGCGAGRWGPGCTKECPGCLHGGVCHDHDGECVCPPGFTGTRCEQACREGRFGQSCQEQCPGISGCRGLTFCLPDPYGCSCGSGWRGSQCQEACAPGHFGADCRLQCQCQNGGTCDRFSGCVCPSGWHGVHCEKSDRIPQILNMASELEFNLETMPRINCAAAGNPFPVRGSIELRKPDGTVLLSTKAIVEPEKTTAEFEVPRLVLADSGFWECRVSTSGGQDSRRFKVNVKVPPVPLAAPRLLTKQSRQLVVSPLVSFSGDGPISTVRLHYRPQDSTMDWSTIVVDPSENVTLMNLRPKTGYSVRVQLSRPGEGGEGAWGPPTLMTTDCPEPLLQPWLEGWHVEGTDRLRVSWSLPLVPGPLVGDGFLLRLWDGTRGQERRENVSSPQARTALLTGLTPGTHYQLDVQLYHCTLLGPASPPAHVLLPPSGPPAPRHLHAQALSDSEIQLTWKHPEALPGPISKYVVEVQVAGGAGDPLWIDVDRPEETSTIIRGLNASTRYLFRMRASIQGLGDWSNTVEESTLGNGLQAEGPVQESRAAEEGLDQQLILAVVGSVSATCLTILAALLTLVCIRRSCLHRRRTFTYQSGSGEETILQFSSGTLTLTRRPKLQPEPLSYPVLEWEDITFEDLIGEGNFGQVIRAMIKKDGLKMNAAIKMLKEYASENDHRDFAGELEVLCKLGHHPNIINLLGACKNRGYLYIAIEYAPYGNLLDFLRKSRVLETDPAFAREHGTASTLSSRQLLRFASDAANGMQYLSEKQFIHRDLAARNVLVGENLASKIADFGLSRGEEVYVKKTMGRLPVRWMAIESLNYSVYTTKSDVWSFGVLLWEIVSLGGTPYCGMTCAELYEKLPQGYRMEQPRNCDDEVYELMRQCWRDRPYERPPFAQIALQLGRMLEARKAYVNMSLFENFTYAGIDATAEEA

[7] = target: kinases (KINOMEscan panel) (Homo sapiens, UniProt P07332); conditions: kinase FES; NEW KINOMEscan
Chain of kinases (KINOMEscan panel) (Homo sapiens, UniProt P07332) (P07332 whole entry): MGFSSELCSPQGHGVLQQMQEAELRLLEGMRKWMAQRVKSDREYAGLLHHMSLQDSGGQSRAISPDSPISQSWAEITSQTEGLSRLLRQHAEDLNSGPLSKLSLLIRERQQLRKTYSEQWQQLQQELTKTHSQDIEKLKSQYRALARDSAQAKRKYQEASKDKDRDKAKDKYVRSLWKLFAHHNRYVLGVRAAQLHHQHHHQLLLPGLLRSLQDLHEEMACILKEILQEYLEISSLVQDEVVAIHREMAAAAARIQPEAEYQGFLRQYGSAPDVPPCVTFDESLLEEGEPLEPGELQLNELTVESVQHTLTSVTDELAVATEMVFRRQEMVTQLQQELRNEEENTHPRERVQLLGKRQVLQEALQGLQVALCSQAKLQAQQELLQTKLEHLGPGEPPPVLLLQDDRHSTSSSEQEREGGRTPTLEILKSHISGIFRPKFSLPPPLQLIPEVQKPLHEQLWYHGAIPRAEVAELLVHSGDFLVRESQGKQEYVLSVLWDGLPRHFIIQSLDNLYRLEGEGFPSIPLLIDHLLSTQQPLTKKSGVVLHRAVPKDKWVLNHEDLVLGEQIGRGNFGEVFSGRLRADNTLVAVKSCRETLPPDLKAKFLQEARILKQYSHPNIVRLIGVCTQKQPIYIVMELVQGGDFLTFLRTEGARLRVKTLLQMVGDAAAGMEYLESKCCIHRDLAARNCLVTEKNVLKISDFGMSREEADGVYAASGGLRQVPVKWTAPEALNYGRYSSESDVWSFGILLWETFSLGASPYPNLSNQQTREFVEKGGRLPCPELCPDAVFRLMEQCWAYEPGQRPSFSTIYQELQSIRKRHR

[8] = target: T2, kinases (KINOMEscan panel) (Homo sapiens, UniProt Q9HBY8); conditions: NEW KINOMEscan
T2 sequence (Q9HBY8 1-367): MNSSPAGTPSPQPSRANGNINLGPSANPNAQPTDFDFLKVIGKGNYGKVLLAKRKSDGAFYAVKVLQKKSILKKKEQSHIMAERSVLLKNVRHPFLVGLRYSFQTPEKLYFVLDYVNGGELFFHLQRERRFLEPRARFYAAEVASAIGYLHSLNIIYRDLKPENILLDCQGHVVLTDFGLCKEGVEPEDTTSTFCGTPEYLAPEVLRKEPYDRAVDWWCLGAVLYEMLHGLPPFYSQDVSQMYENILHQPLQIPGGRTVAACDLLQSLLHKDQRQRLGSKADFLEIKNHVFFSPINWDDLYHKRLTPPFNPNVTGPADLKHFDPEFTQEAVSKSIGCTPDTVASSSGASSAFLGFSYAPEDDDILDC

[9] = target: kinases (KINOMEscan panel) (Homo sapiens, UniProt P42336, C420R); conditions: PIK3CA(C420R); NEW KINOMEscan
Chain of kinases (KINOMEscan panel) (Homo sapiens, UniProt P42336, C420R) (P42336 whole entry C420R): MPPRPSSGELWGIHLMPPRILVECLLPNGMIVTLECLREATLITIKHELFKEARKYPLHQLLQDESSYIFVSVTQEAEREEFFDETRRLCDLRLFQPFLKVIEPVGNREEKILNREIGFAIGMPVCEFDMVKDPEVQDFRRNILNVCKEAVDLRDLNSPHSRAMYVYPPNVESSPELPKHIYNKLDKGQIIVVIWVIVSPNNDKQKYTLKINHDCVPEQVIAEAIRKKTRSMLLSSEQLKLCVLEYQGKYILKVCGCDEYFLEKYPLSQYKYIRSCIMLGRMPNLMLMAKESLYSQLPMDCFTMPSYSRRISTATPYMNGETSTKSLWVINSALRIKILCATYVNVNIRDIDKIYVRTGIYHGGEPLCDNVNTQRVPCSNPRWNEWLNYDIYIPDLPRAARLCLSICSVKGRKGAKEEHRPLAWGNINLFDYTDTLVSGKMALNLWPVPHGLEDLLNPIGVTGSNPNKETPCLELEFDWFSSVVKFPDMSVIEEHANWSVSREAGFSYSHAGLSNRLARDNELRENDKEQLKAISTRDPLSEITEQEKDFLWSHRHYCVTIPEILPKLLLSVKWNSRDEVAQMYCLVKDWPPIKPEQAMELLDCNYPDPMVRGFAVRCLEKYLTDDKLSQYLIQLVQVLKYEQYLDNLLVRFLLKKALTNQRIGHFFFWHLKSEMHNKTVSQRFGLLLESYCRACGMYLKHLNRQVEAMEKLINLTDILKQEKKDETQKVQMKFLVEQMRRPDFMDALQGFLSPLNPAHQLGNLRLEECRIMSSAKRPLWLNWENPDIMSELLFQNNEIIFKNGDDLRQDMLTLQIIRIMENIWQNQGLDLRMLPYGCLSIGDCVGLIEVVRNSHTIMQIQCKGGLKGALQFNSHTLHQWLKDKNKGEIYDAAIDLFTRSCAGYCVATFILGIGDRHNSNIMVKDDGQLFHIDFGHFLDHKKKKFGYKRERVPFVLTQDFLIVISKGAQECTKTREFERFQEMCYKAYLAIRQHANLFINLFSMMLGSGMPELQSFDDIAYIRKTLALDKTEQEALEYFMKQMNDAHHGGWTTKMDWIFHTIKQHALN

[10] = target: T3, kinases (KINOMEscan panel) (Homo sapiens, UniProt Q92772); conditions: CDKL2; NEW KINOMEscan
T3 sequence (Q92772 1-493): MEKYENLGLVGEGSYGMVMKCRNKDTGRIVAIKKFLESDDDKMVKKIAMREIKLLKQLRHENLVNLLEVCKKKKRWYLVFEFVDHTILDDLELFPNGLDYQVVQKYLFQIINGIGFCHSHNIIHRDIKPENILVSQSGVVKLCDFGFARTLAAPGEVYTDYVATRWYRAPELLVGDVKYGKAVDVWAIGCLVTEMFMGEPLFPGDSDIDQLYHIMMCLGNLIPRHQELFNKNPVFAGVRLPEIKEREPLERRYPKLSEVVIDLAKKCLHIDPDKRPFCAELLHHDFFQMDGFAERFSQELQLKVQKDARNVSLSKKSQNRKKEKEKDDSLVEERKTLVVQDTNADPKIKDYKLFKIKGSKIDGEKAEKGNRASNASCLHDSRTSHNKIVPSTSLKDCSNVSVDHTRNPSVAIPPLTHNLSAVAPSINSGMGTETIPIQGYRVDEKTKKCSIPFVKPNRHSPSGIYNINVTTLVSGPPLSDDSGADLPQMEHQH

In the case of `Cc1cccc(-c2nc(N(C)c3ccc4ncsc4c3)c3ccccc3n2)n1` [NK-161], the “KINOMEscan KIT(L576P)” value [1] is reported as 0, the “KINOMEscan NEK10” value [2] is reported as 17 and the “KINOMEscan CDK17” value [3] is reported as 0. For the same compound, the “KINOMEscan CDKL3” value [4] was 0, the “KINOMEscan BUB1” value [5] was 0 and the “KINOMEscan TIE1” value [6] was 0. For the same compound, the “KINOMEscan FES” value [7] was 4, the “KINOMEscan SGK2” value [8] was 15 and the “KINOMEscan PIK3CA(C420R)” value [9] was 0. The “KINOMEscan CDKL2” value [10] was 0.

`Cc1cccc(-c2nc(Nc3ccc4nn(C)cc4c3)c3ccccc3n2)n1` [NK167] was tested, and the “KINOMEscan KIT(L576P)” value [1] was 3, the “KINOMEscan NEK10” value [2] was 11 and the “KINOMEscan CDK17” value [3] was 1. The “KINOMEscan CDKL3” value [4] was 12, the “KINOMEscan BUB1” value [5] was 0 and the “KINOMEscan TIE1” value [6] was 0. For the same compound, the “KINOMEscan FES” value [7] was 0, the “KINOMEscan SGK2” value [8] was 0 and the “KINOMEscan PIK3CA(C420R)” value [9] was 0. For the same compound, the “KINOMEscan CDKL2” value [10] was 0.
